Measured values as given in PMC4336144, “Screening the Medicines for Malaria Venture "Malaria Box" against the Plasmodium falciparum Aminopeptidases, M1, M17 and M18” (PLoS ONE, 2015).

What was measured:
PfA-M1 [1] = biological target: T1, PfA-M1 (Plasmodium falciparum, UniProt O96935); experiment: Determination of Ki values (Dixon plots, H-Leu-NHMec); type: biochemical; details: for Ki / Ki PfA-M1: Dixon plot; for Ki: read-out: Ki PfA-M1
T1 construct: made in house; host or cells: Escherichia coli
T1 sequence (O96935 195-1085 limits assumed): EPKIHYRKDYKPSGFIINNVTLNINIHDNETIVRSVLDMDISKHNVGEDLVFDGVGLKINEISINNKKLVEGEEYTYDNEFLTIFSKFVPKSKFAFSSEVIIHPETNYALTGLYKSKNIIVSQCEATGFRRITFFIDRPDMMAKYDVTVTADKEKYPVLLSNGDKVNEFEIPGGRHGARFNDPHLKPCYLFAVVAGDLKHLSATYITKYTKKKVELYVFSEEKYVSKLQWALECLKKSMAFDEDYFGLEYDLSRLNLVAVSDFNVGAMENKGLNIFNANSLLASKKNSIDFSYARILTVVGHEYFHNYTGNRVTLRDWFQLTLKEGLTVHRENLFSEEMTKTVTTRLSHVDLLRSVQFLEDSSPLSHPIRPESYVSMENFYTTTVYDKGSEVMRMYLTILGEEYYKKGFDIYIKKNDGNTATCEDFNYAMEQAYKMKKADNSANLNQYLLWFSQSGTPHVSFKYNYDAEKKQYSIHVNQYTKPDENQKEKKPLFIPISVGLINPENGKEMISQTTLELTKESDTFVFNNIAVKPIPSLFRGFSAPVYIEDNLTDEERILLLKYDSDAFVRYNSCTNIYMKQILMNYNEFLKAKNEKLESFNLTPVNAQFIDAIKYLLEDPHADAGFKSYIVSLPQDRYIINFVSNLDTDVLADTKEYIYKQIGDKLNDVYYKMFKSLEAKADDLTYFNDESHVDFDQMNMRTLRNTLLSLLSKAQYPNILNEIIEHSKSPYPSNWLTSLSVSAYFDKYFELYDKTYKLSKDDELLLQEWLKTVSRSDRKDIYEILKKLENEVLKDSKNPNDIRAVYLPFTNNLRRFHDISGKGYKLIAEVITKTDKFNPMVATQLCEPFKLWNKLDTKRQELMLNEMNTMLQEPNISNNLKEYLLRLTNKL
Method: (§1) MMV020750 was purchased from InterBioScreen (catalog number STOCK2S-51608) and MMV666023 was purchased from ChemBridge (catalog number 5566248). The MMV020750 derivatives 1, 2 and 3 were purchased from Ambinter (catalog numbers AMB425981, AMB2311364 and AMB8506251 respectively). 4-(4,5-Diphenyl-1H-imidazol-2-yl)benzoic acid (4) was purchased from TCI Chemicals, while 4-(4,5-diphenyl-1H-imidazol-2-yl)-N-hydroxybenzamide (5) was prepared from 4 as described (S1 Methods). Aminopeptidase activity of both PfA-M1 and PfA-M17 enzymes was determined by measuring the release of the fluorogenic leaving group, NHMec, from the fluorogenic peptide L-Leucine-7-amido-4-methylcoumarin hydrochloride (H-Leu-NHMec) (Sigma L2145). The assay protocol devised by Stack CM, et al, (J. Biol Chem, 2007) was modified and used, with the reactions were carried out at 37°C and monitored using a spectrofluorometer (BMG FLUOstar) with excitation at 355 nm and emission at 460 nm. Each enzyme was pre-incubated in 50 mM Tris pH 8.0, 2 mM CoCl2; 5% DMSO with each inhibitor for 10 min prior to the addition of substrate. Inhibitor concentration was assayed between 0 and 500 μM final for each compound, and repeated over a narrowed range if necessary. The fluorescence signal was monitored until a final steady state velocity, V, was obtained. The K i values were then evaluated using Dixon plots of 1/V versus inhibitor concentration while the substrate concentration was maintained lower than that of the Km of the enzyme.

PfA-M17 = biological target: T2, PfA-M17 (Plasmodium falciparum, UniProt Q8IL11); experiment: as above; type: biochemical; details: for loss in inhibitory activity against PfA-M17: compared to parent MMV020750
T2 construct: made in house; host or cells: Escherichia coli
T2 sequence (Q8IL11 84-605 limits assumed): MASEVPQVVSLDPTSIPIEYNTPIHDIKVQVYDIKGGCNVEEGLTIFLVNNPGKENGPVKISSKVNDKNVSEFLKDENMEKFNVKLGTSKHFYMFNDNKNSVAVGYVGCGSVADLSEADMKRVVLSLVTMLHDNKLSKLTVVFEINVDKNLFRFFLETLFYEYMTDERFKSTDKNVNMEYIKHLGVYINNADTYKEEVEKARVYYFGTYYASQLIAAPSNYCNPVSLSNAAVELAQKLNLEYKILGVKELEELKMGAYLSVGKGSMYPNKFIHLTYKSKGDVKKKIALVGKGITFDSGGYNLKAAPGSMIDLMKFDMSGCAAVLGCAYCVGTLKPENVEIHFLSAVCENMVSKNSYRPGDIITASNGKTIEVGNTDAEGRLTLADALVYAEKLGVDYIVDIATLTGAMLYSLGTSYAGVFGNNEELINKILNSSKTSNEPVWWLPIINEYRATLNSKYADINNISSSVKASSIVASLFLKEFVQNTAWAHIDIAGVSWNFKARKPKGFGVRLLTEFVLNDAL
Method: as §1
This was a particular problem with the PfA-M17 enzyme assays where we noted that at higher concentrations of 4, a decrease in fluorescence was observed. We hypothesise that this is a result of PfA-M17 binding to the compound and quenching the intrinsic fluorescence. […] We therefore chose to analyse a reduced concentration range for 4.

PfA-M1 and/or PfA-M17 = experiment: Multiplex primary screen, fluorogenic substrate Leu-Mec; type: biochemical, Plasmodium falciparum; details: 100 μM compound, multiplex assay
Method: A multiplex enzyme assay was developed to complete the primary screen of 400 compounds that were provided to us by MMV and SCYNEXIS. Combined PfMAP (15 nM PfA-M1; 80 nM PfA-M17 and 125 nM PfM18AAP) aminopeptidase activity in the presence of a single MMV compound (100 μM solubilized in 100% dimethyl sulfoxide, DMSO, final DMSO concentration in assay = 10%) was determined by simultaneous measurement of the release of the fluorogenic leaving group, -NHMec, from L-Leucine-7-amido-4-methylcoumarin-HCl (Leu-Mec) (Sigma) as well as the hydrolysis of p-nitroanilide from the chromogenic substrate, L-Glutamic acid p-nitroanilide (Glu-pNA) (Sigma). The fluorogenic substrate records the combined activity of PfA-M1 and PfA-M17 while the p-nitroanilide substrate is specific for PfM18AAP. Reactions were carried out in 96-well microtitre plates (200 μL total volume) in 50 mM Tris-HCl pH 8.0, 2 mM CoCl2 at 37°C. Following a 10 min incubation (multi-enzyme and single compound) at 37°C, reactions were initiated by addition of both fluorogenic and chromagenic substrates. Progress curves were monitored using a FLUOstar Omega multimode reader (BMG LabTech) for 1.5 h at 37°C. As activity references, individual enzyme and multiple enzyme 'no compound' controls and 'positive inhibitor' controls (with 10% DMSO) were included in each 96 well plate assay.

PfA-M1 [2] = biological target: T1, PfA-M1; experiment: Secondary screening against individual enzyme; type: biochemical; details: 100 μM compound; for reduction of PfA-M1 activity: n = 3
Method: Aminopeptidase activity of each individual enzyme in the presence of a single MMV compound (100 μM) was determined using Leu-Mec for both PfA-M1 (15 nM) and PfA-M17 (80 nM) or Glu-pNA for PfM18AAP (125 nM). Reactions were carried out in 96-well microtitre plates (200 μl total volume) in 50 mM Tris-HCl pH 8.0, 2 mM CoCl2 at 37°C. Following a 10 min incubation (enzyme and compound) at 37°C, reactions were initiated by addition of enzyme specific substrate. Progress curves were monitored using a FLUOstar Omega multimode reader (BMG LabTech) for 1.5 h at 37°C. As activity references, individual enzyme 'no compound' controls and 'positive inhibitor' controls were included in each 96 well plate assay. We applied a cut-off of < 10% activity in the presence of 100 μM compound for selection to the next phase. Compounds that were selected to proceed were then used in further assays to obtain n = 3.

Compound | Activity (PfA-M1 and/or PfA-M17) (PfA-M1 and/or PfA-M17) | other results
COc1cc(-c2nc(-c3ccccc3)c(-c3ccccc3)[nH]2)ccc1OCC(N)=O [Compound 2] | – | Ki (PfA-M1 [1]): > 500 µM; Ki (PfA-M17; Dixon plot): > 500 µM
Oc1c(C(Nc2ccccn2)c2cccc(Oc3ccccc3)c2)ccc2cccnc12 (centres unmarked) [MMV665814] | R | –
COc1ccc(C=C2SC(=N)N(c3ccccc3OC)C2=O)cc1 [MMV666691] | R | –
O=C(Nc1ccc(-c2nc3cc4ccccc4cc3[nH]2)cc1)c1cccc(Br)c1 [MMV019241] | R | –
Cc1cccc(N2C(=O)C3C(C2=O)C2(c4ccccc4)C(=O)C3(c3ccccc3)C(c3ccc4c(c3)OCO4)=C2c2ccc3c(c2)OCO3)c1 (centres unmarked) [MMV007228] | R | reduction of PfA-M1 activity (PfA-M1 [2]): 89%
Cc1cccc(-n2ncc3c(O)nc(-n4nc(C)cc4NC(=O)c4cc5ccccc5o4)nc32)c1 [MMV403679] | R | reduction of PfA-M1 activity (PfA-M1 [2]): 75%
Cc1ccc(-c2cc(C(=O)Nc3ccc(S(=O)(=O)N4CCCCC4)cc3)[nH]n2)c(O)c1 [MMV665906] | R | –
Cc1ccnc(NC(c2cccc(OCc3ccccc3)c2)c2ccc3cccnc3c2O)c1 (centres unmarked) [MMV000720] | R | –
COc1ccc(C(=O)NC(c2ccccc2Cl)c2cc(Cl)c3cccnc3c2O)cc1 (centres unmarked) [MMV666022] | R | –
COc1ccc(C(=O)NC(c2ccc(Cl)cc2Cl)c2cc(Cl)c3cccnc3c2O)cc1 (centres unmarked) [MMV666054] | R | reduction of PfA-M1 activity (PfA-M1 [2]): 87%
CN(C)c1ccc(C=Cc2nc(=O)c3ccccc3o2)cc1 [MMV006309] | R | –
O=C(NNc1cc(N2CCCC2)nc(N2CCCC2)n1)c1ccccc1 [MMV396770] | R | –
O=C(NO)c1ccc(-c2nc(-c3ccccc3)c(-c3ccccc3)[nH]2)cc1 [Compound 5, 4-(4,5-diphenyl-1H-imidazol-2-yl)-N-hydroxybenzamide] | – | Ki PfA-M1 (PfA-M1 [1]): micromolar range; Ki (PfA-M1 [1]): 34 µM; Ki (PfA-M17; Dixon plot): 187 µM; loss in inhibitory activity against PfA-M17 (PfA-M17): > 10 fold
CCOC(=O)c1c(NC(=O)c2ccccc2)sc2c(O)c(CN(CC)CC)ccc12 [MMV665831] | R | –
CN(CCO)c1ccc(-c2nc(-c3ccccc3)c(-c3ccccc3)[nH]2)cc1 [Compound 1] | – | Ki (PfA-M1 [1]): > 500 µM; Ki (PfA-M17; Dixon plot): > 500 µM
Nc1ccc(-c2nc3cc(Oc4ccc(Oc5ccc6[nH]c(-c7ccc(N)cc7)nc6c5)cc4)ccc3[nH]2)cc1 [MMV011895] | R | –
COc1ccc(C=C2SC(Nc3ccc(F)cc3)=NC2=O)c(OC)c1 [MMV084434] | R | –
O=C(O)c1ccc(-c2nc(-c3ccccc3)c(-c3ccccc3)[nH]2)cc1 [Compound 4, 4-(4,5-Diphenyl-1H-imidazol-2-yl)benzoic acid] | – | Ki (PfA-M1 [1]): 5.2 µM; increase in potency against PfA-M1 (PfA-M1 [1]; compared to MMV020750): > 10 fold; Ki (PfA-M17; Dixon plot): 20 to 40 µM; Ki PfA-M17 (PfA-M17; Dixon plot): micromolar range
COc1cc(-c2nc(-c3ccc(Sc4ccccc4)cc3)c(-c3ccccc3)[nH]2)cc(OC)c1O [MMV007273] | R | PfA-M1 activity retained in the presence of compound (PfA-M1 [2]; n = 3, of total enzyme activity): ~75%
OCCNc1nc(Nc2ccc(Cl)c(Cl)c2)nc2ccccc12 [MMV001041] | R | –
COc1ccc(CCN2C(=O)c3[nH]nc(-c4cc(Cl)c(C)cc4O)c3C2c2ccccc2F)cc1 (centres unmarked) [MMV396717] | R | –
COc1cccc(C(=O)NC(c2ccc(C)cc2)c2cc(Cl)c3cccnc3c2O)c1 (centres unmarked) [MMV665969] | R | –
COc1ccc2c(c1)OC(O)(C(F)(F)C(F)(F)F)CC2=O (centres unmarked) [MMV007839] | R | –
COC(=O)c1ccc(-c2nc(-c3ccccc3)c(-c3ccccc3)[nH]2)cc1 [Compound 3] | – | Ki PfA-M1 (PfA-M1 [1]): micromolar range; Ki (PfA-M1 [1]): 120 µM; Ki (PfA-M17; Dixon plot): 275 µM; loss in inhibitory activity against PfA-M17 (PfA-M17): > 10 fold
COc1ccc(/C=C2/SC(=Nc3ccccc3)NC2=O)cc1 [MMV665836] | R | –
Oc1ccc(-c2nc(-c3ccc4oc5ccc(-c6[nH]c(-c7ccc(O)cc7)nc6-c6ccccc6)cc5c4c3)c(-c3ccccc3)[nH]2)cc1 [MMV000753] | R | –
